Assays:
wild poinsettia = assay: Test F postemergence; assay type: in vivo, Euphorbia heterophylla; details: scale 0 to 100
Excerpt: (§1) Seeds of plant species selected from corn (Zea mays), soybean (Glycine max), velvetleaf (Abutilon theophrasti), lambsquarters (Chenopodium album), wild poinsettia (Euphorbia heterophylla), pigweed, palmer (palmer pigweed, Amaranthus palmeri), common waterhemp (Amaranthus rudis), surinam grass (Brachiaria decumbens), large crabgrass (Digitaria sanguinalis), crabgrass, Brazil (Brazilian crabgrass, Digitaria horizontalis), fall panicum (Panicum dichotomiflorum), giant foxtail (Setaria faberii), green foxtail (Setaria viridis), goosegrass (Eleusine indica), johnsongrass (Sorghum halepense), common ragweed (Ambrosia elation), barnyardgrass (Echinochloa crus-galli), southern sandbur (Cenchrus echinatus), arrowleaf sida (Sida rhombifolia), Italian ryegrass (Lolium multiflorum), dayflower, VA (Virginia (VA) dayflower, Commelina virginica), field bindweed (Convolvulus arvensis), cocklebur (common cocklebur, Xanthium strumarium), morningglory (Ipomoea coccinea), nightshade (eastern black nightshade, Solanum ptycanthum), kochia (Kochia scoparia), yellow nutsedge (Cyperus esculentus), and hairy beggarticks (Bidens pilosa), were planted into a silt loam soil and treated preemergence with test chemicals formulated in a non-phytotoxic solvent mixture which included a surfactant.
(§2) At the same time, plants from these crop and weed species and also horseweed (Canada horseweed, Conyza canadensis), smartweed (ladysthumb smartweed, Polygonum persicaria), waterhemp_RES1, (ALS & Triazine resistant common waterhemp, Amaranthus rudis), and waterhemp_RES2, (ALS & HPPD resistant common waterhemp, Amaranthus rudis) were treated with postemergence applications of test chemicals formulated in the same manner. Plants ranged in height from 2 to 18 cm for postemergence treatments (1- to 4-leaf stage). Treated plants and controls were maintained in a greenhouse for 14 to 21 days, after which time all species were compared to controls and visually evaluated. Plant response ratings, summarized in Table F, are based on a scale of 0 to 100 where 0 is no effect and 100 is complete control. A dash (-) response means no test result.

Surinam grass = assay: Test E preemergence; assay type: in vivo, Brachiaria decumbens; details: 21 days, scale 0 to 100
Excerpt: (§3) Seeds of plant species selected from bermudagrass (Cynodon dactylon), Surinam grass (Brachiaria decumbens), crabgrass, large (large crabgrass, Digitaria sanguinalis), crabgrass, naked (naked crabgrass, Digitaria nuda), foxtail, green (green foxtail, Setaria viridis), johnsongrass (Sorghum halepense), kochia (Kochia scoparia), morningglory (pitted morningglory, Ipomoea lacunosa), nutsedge, purple (purple nutsedge, Cyperus rotundus), ragweed (common ragweed, Ambrosia elation), mustard, black (black mustard, Brassica nigra), guineagrass (Panicum maximum), dallisgrass (Paspalum dilatatum), barnyardgrass (Echinochloa crus-galli), sandbur (southern sandbur, Cenchrus echinatus), sowthistle (common sowthistle, Sonchus oleraceous), ryegrass, Italian (Italian ryegrass, Lolium multiflorum), signalgrass (broadleaf signalgrass, Brachiaria platyphylla), dayflower, VA (Virginia (VA) dayflower, Commelina virginica), bluegrass (annual bluegrass, Poa annua), quackgrass (Elytrigia repens), mallow (common mallow, Malva sylvestris), buckwheat, wild (wild buckwheat, Polygonum convolvulus), leafy spurge (Euphorbia esula), common chickweed (Stellaria media), wild poinsettia (Euphorbia heterophylla), pigweed, palmer (palmer pigweed, Amaranthus palmeri), and pigweed (redroot pigweed, Amaranthus retroflexus) were planted into a blend of loam soil and sand and treated preemergence with test chemicals formulated in a non-phytotoxic solvent mixture which included a surfactant.
(§4) Treated plants and controls were maintained in a greenhouse for 21 days, after which time all species were compared to controls and visually evaluated. Plant response ratings, summarized in Table E, are based on a scale of 0 to 100 where 0 is no effect and 100 is complete control. A dash (-) response means no test result.

corn = assay: Test F postemergence; assay type: in vivo, Zea mays; details: scale 0 to 100
Excerpt: as §1, §2

mustard, black = assay: Test E preemergence; assay type: in vivo, Brassica nigra; details: 21 days, scale 0 to 100
Excerpt: as §3, §4

sandbur = assay: Test E preemergence; assay type: in vivo, Cenchrus echinatus; details: 21 days, scale 0 to 100
Excerpt: as §3, §4

barnyardgrass = assay: Test E preemergence; assay type: in vivo, Echinochloa crus-galli; details: 21 days, scale 0 to 100
Excerpt: as §3, §4

field bindweed = assay: Test F postemergence; assay type: in vivo, Convolvulus arvensis; details: scale 0 to 100
How it was run: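 Formulated in surfactant-containing non-phytotoxic solvent; pre: applied to seeded silt loam; post: applied to plants 2–18 cm (1–4 leaves); greenhouse 14–21 d; visual 0–100 rating vs controls.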

dallisgrass = assay: Test E preemergence; assay type: in vivo, Paspalum dilatatum; details: 21 days, scale 0 to 100
Excerpt: as §3, §4

soybean = assay: Test F postemergence; assay type: in vivo, Glycine max; details: scale 0 to 100
Excerpt: as §1, §2

**Q.** How did the “Plant response rating, Wild Poinsettia” value (wild poinsettia; Postemergence, 31 g ai/ha) turn out when `CCc1cc(C(=O)NCC(F)(F)F)nn1Cc1ccnc(C(F)(F)F)c1` [Compound 78, 5-ethyl-N-(2,2,2-trifluoroethyl)-1-[[(2-trifluoromethyl)-4-pyridinyl]methyl]-1H-pyrazole-3-carboxamide] was run?
**A.** 25

**Q.** And the “Plant response rating, Wild Poinsettia” value (wild poinsettia; Postemergence, 125 g ai/ha)?
**A.** 70

**Q.** And the “Plant response rating, Wild Poinsettia” value (wild poinsettia; Postemergence, 250 g ai/ha)?
**A.** 80

**Q.** And the “Plant response rating, Wild Poinsettia” value (wild poinsettia; postemergence, 62 g ai/ha)?
**A.** 50

**Q.** What about the “Plant response rating, Wild Poinsettia” value (wild poinsettia; postemergence, 500 g ai/ha) of the same compound?
**A.** 90

**Q.** And the “Plant response rating, Surinam Grass” value (Surinam grass; 16 g ai/ha)?
**A.** 20

**Q.** What about the “Plant response rating, Surinam Grass” value (Surinam grass; 31 g ai/ha) of the same compound?
**A.** 80

**Q.** What about the “Plant response rating, Surinam Grass” value (Surinam grass; 62 g ai/ha) of the same compound?
**A.** 90

**Q.** What about the “Plant response rating, Surinam Grass” value (Surinam grass; 125 g ai/ha) of the same compound?
**A.** 90

**Q.** And the “Plant response rating, Surinam Grass” value (Surinam grass; 250 g ai/ha)?
**A.** 100

**Q.** What about the “Plant response rating, Corn” value (corn; Postemergence, 31 g ai/ha) of the same compound?
**A.** 15

**Q.** What about the “Plant response rating, Corn” value (corn; Postemergence, 125 g ai/ha) of the same compound?
**A.** 50

**Q.** And the “Plant response rating, Corn” value (corn; Postemergence, 250 g ai/ha)?
**A.** 85

**Q.** What about the “Plant response rating, Corn” value (corn; postemergence, 62 g ai/ha) of the same compound?
**A.** 20

**Q.** And the “Plant response rating, Mustard, Black” value (mustard, black; 16 g ai/ha)?
**A.** 70

**Q.** And the “Plant response rating, Mustard, Black” value (mustard, black; 31 g ai/ha)?
**A.** 100

**Q.** What about the “Plant response rating, Mustard, Black” value (mustard, black; 62 g ai/ha) of the same compound?
**A.** 100

**Q.** And the “Plant response rating, Mustard, Black” value (mustard, black; 125 g ai/ha)?
**A.** 100

**Q.** What about the “Plant response rating, Mustard, Black” value (mustard, black; 250 g ai/ha) of the same compound?
**A.** 100

**Q.** What about the “Plant response rating, Sandbur” value (sandbur; 16 g ai/ha) of the same compound?
**A.** 40

**Q.** What about the “Plant response rating, Sandbur” value (sandbur; 31 g ai/ha) of the same compound?
**A.** 50

**Q.** And the “Plant response rating, Sandbur” value (sandbur; 62 g ai/ha)?
**A.** 90

**Q.** And the “Plant response rating, Sandbur” value (sandbur; 125 g ai/ha)?
**A.** 95

**Q.** And the “Plant response rating, Sandbur” value (sandbur; 250 g ai/ha)?
**A.** 100

**Q.** What about the “Plant response rating, Barnyardgrass” value (barnyardgrass; 16 g ai/ha) of the same compound?
**A.** 35

**Q.** And the “Plant response rating, Barnyardgrass” value (barnyardgrass; 31 g ai/ha)?
**A.** 95

**Q.** What about the “Plant response rating, Barnyardgrass” value (barnyardgrass; 62 g ai/ha) of the same compound?
**A.** 100

**Q.** And the “Plant response rating, Barnyardgrass” value (barnyardgrass; 125 g ai/ha)?
**A.** 100

**Q.** What about the “Plant response rating, Barnyardgrass” value (barnyardgrass; 250 g ai/ha) of the same compound?
**A.** 100

**Q.** What about the “Plant response rating, Field Bindweed” value (field bindweed; Postemergence, 31 g ai/ha) of the same compound?
**A.** 40

**Q.** And the “Plant response rating, Field Bindweed” value (field bindweed; Postemergence, 125 g ai/ha)?
**A.** 90

**Q.** And the “Plant response rating, Field Bindweed” value (field bindweed; Postemergence, 250 g ai/ha)?
**A.** 95

**Q.** And the “Plant response rating, Field Bindweed” value (field bindweed; postemergence, 62 g ai/ha)?
**A.** 70

**Q.** And the “Plant response rating, Field Bindweed” value (field bindweed; postemergence, 500 g ai/ha)?
**A.** 98

**Q.** What about the “Plant response rating, Dallisgrass” value (dallisgrass; 16 g ai/ha) of the same compound?
**A.** 90

**Q.** And the “Plant response rating, Dallisgrass” value (dallisgrass; 31 g ai/ha)?
**A.** 100

**Q.** What about the “Plant response rating, Dallisgrass” value (dallisgrass; 62 g ai/ha) of the same compound?
**A.** 100

**Q.** What about the “Plant response rating, Dallisgrass” value (dallisgrass; 125 g ai/ha) of the same compound?
**A.** 100

**Q.** What about the “Plant response rating, Dallisgrass” value (dallisgrass; 250 g ai/ha) of the same compound?
**A.** 100

**Q.** What about the “Plant response rating, Soybean” value (soybean; Postemergence, 31 g ai/ha) of the same compound?
**A.** 75

**Q.** What about the “Plant response rating, Soybean” value (soybean; Postemergence, 250 g ai/ha) of the same compound?
**A.** 95

**Q.** And the “Plant response rating, Soybean” value (soybean; postemergence, 62 g ai/ha)?
**A.** 80

**Q.** And the “Plant response rating, Soybean” value (soybean; postemergence, 500 g ai/ha)?
**A.** 100

**Q.** What does the source list for `CCOc1cc(C(=O)NCC(F)(F)F)nn1Cc1ccnc(C(F)(F)F)c1` [Compound 104]?
**A.** Plant response rating, Wild Poinsettia (wild poinsettia; Postemergence, 31 g ai/ha): 45; Plant response rating, Wild Poinsettia (wild poinsettia; Postemergence, 125 g ai/ha): 95; Plant response rating, Wild Poinsettia (wild poinsettia; Postemergence, 250 g ai/ha): 90; Plant response rating, Wild Poinsettia (wild poinsettia; postemergence, 62 g ai/ha): 60; Plant response rating, Wild Poinsettia (wild poinsettia; postemergence, 500 g ai/ha): 100; Plant response rating, Surinam Grass (Surinam grass; 16 g ai/ha): 50; Plant response rating, Surinam Grass (Surinam grass; 31 g ai/ha): 75; Plant response rating, Surinam Grass (Surinam grass; 62 g ai/ha): 95; Plant response rating, Surinam Grass (Surinam grass; 125 g ai/ha): 100; Plant response rating, Surinam Grass (Surinam grass; 250 g ai/ha): 100; Plant response rating, Corn (corn; Postemergence, 31 g ai/ha): 10; Plant response rating, Corn (corn; Postemergence, 125 g ai/ha): 50; Plant response rating, Corn (corn; Postemergence, 250 g ai/ha): 90; Plant response rating, Corn (corn; postemergence, 62 g ai/ha): 25; Plant response rating, Mustard, Black (mustard, black; 16 g ai/ha): 100; Plant response rating, Mustard, Black (mustard, black; 31 g ai/ha): 100; Plant response rating, Mustard, Black (mustard, black; 62 g ai/ha): 100; Plant response rating, Mustard, Black (mustard, black; 125 g ai/ha): 100; Plant response rating, Mustard, Black (mustard, black; 250 g ai/ha): 100; Plant response rating, Sandbur (sandbur; 16 g ai/ha): 70; Plant response rating, Sandbur (sandbur; 31 g ai/ha): 90; Plant response rating, Sandbur (sandbur; 62 g ai/ha): 100; Plant response rating, Sandbur (sandbur; 125 g ai/ha): 98; Plant response rating, Sandbur (sandbur; 250 g ai/ha): 100; Plant response rating, Barnyardgrass (barnyardgrass; 16 g ai/ha): 95; Plant response rating, Barnyardgrass (barnyardgrass; 31 g ai/ha): 100; Plant response rating, Barnyardgrass (barnyardgrass; 62 g ai/ha): 100; Plant response rating, Barnyardgrass (barnyardgrass; 125 g ai/ha): 100; Plant response rating, Barnyardgrass (barnyardgrass; 250 g ai/ha): 100; Plant response rating, Field Bindweed (field bindweed; Postemergence, 31 g ai/ha): 70; Plant response rating, Field Bindweed (field bindweed; Postemergence, 125 g ai/ha): 90; Plant response rating, Field Bindweed (field bindweed; Postemergence, 250 g ai/ha): 90; Plant response rating, Field Bindweed (field bindweed; postemergence, 62 g ai/ha): 70; Plant response rating, Field Bindweed (field bindweed; postemergence, 500 g ai/ha): 95; Plant response rating, Dallisgrass (dallisgrass; 16 g ai/ha): 95; Plant response rating, Dallisgrass (dallisgrass; 31 g ai/ha): 98; Plant response rating, Dallisgrass (dallisgrass; 62 g ai/ha): 100; Plant response rating, Dallisgrass (dallisgrass; 125 g ai/ha): 100; Plant response rating, Dallisgrass (dallisgrass; 250 g ai/ha): 100; Plant response rating, Soybean (soybean; Postemergence, 31 g ai/ha): 95; Plant response rating, Soybean (soybean; Postemergence, 125 g ai/ha): 98; Plant response rating, Soybean (soybean; Postemergence, 250 g ai/ha): 98; Plant response rating, Soybean (soybean; postemergence, 62 g ai/ha): 95; Plant response rating, Soybean (soybean; postemergence, 500 g ai/ha): 95

— US20150105252A1, “SUBSTITUTED PYRAZOLES AS HERBICIDES” (E I DU PONT DE NEMOURS AND COMPANY, priority 2013, published 2015)
